Source: the supplement of paper PMC4862054

Experiments:
Experiment in all cases: normalised response (% of control), CellTox Green; higher = less cell death (100 = DMSO, 0 = benzethonium chloride kill control)
Settings in all cases: incubation time: 72 h
[1] = system: MDA-MB-453
Procedure, shortened: (§1)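 In 384-well plates holding compound at 5 concentrations in 10-fold steps over a 10,000-fold range specific to each compound, breast cancer cell lines were seeded as 20 µl suspension and incubated 72 h. CellTox Green fluorescence was measured at 485/520 nm, after which CellTiter-Glo luminescence was measured following 10 min at room temperature. Plate signals were normalised to 0.1 % DMSO (100) and a positive kill control (0), and each value is the normalised signal at a single concentration.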

[2] = system: MDA-MB-436
Procedure, shortened: as §1

[3] = system: CAL-51
Procedure, shortened: as §1

[4] = system: BT-549
Procedure, shortened: as §1

[5] = system: CAL-148
Procedure, shortened: as §1

[6] = system: CAL-120
Procedure, shortened: as §1

[7] = system: HCC1937
Procedure, shortened: as §1

[8] = system: MCF-10A
Procedure, shortened: as §1

[9] = system: MFM-223
Procedure, shortened: as §1

[10] = system: MDA-MB-468
Procedure, shortened: as §1

[11] = system: CAL-85-1
Procedure, shortened: as §1

[12] = system: HCC1599
Procedure, shortened: as §1

[13] = system: HDQ-P1
Procedure, shortened: as §1

[14] = system: HCC1143
Procedure, shortened: as §1

[15] = system: DU-4475
Procedure, shortened: as §1

[16] = system: Hs578T
Procedure, shortened: as §1

[17] = system: MDA-MB-231
Procedure, shortened: as §1

[18] = system: BT-474
Procedure, shortened: as §1

SMILES | normalised response [1] [%] | normalised response [2] [%] | normalised response [3] [%] | normalised response [4] [%] | normalised response [5] [%] | normalised response [6] [%] | normalised response [7] [%] | normalised response [8] [%] | normalised response [9] [%] | normalised response [10] [%] | normalised response [11] [%] | normalised response [12] [%] | normalised response [13] [%] | normalised response [14] [%] | normalised response [15] [%] | normalised response [16] [%] | normalised response [17] [%] | normalised response [18] [%]
C[C@@]1(C(=O)Nc2ccc(F)nc2)CCCN1c1nc(Nc2cc(C3CC3)n[nH]2)c2cccn2n1 (10000 nM) | 109 | 90.4 | 18.7 | 65.3 | 59.1 | 26.9 | 104 | 25.8 | 71.2 | 49.8 | 67.8 | 90.1 | 34.9 | -57.9 | 90.2 | 82.1 | 49.8 | 95.3
COc1c(C)cnc(Cn2cnc3c(Cl)nc(N)nc32)c1C [BIIB021] (1000 nM) | 102 | 80.9 | 71.2 | 139 | 26.9 | 95.5 | 108 | 1.93 | 99.3 | 135 | 71.3 | 107 | 90.4 | 90.5 | 68.5 | 63.4 | 71.8 | 77.3
COc1c(C)cnc(Cn2cnc3c(Cl)nc(N)nc32)c1C [BIIB021] (10000 nM) | 93.5 | 106 | 58.2 | 130 | 49.2 | 94.9 | 107 | 52.8 | 93.4 | 96.8 | 39 | 113 | 40.1 | 126 | 80.3 | 89.7 | 48.7 | 49.4
CC(C)C[C@H](NC(=O)[C@H](Cc1ccccc1)NC(=O)c1cnccn1)B(O)O [Bortezomib] (100 nM) | 92.7 | 28.8 | -29 | 55.3 | -26.8 | 35.5 | -5.94 | 74 | 39.2 | -55.4 | -7.21 | 87.5 | 9.79 | 83.5 | 89.7 | 15.4 | -41.1 | 67.6
CC(C)C[C@H](NC(=O)[C@H](Cc1ccccc1)NC(=O)c1cnccn1)B(O)O [Bortezomib] (1000 nM) | 70.9 | 6.1 | 15.4 | 43.7 | 38 | 14.2 | 25.3 | 15.3 | 53.7 | -84 | -48 | 81.6 | 9.5 | 27.3 | 76.1 | 39.2 | -42.8 | 59.7
CS(=O)(=O)OCCCCOS(C)(=O)=O [Busulfan] (10000 nM) | 103 | 74 | 113 | 108 | 106 | 103 | 106 | 104 | 97.1 | 96.5 | 103 | 82 | 95.2 | 121 | 102 | 94.5 | 108 | 101
C#Cc1cccc(Nc2ncnc3cc(OC)c(OCCCCCCC(=O)NO)cc23)c1 [CUDC-101] (1000 nM) | 65.4 | 72.7 | 86.1 | 142 | 74.4 | 90.9 | 113 | 100 | 85 | 35.1 | -33 | 82.2 | 101 | 85.1 | 81.3 | 98.8 | 49.2 | 83.7
C#Cc1cccc(Nc2ncnc3cc(OC)c(OCCCCCCC(=O)NO)cc23)c1 [CUDC-101] (10000 nM) | 83.7 | 57.5 | 4.75 | 108 | -3.26 | 29.1 | 97.7 | 48.6 | 36.9 | -22.4 | -59 | 79.8 | 84.6 | 91.9 | 82.4 | 29.1 | 25.8 | 10.6
COc1cccc2c1C(=O)c1c(O)c3c(c(O)c1C2=O)C[C@@](O)(C(C)=O)C[C@@H]3O[C@H]1C[C@H](N)[C@H](O)[C@H](C)O1 [Daunorubicin] (1000 nM) | 120 | 47.9 | 42.6 | 145 | 75 | 99.2 | 137 | 106 | 101 | 322 | 76.2 | 138 | 101 | 100 | 104 | 144 | 127 | 101
CN1CCN(c2ccc3nc(-c4c(N)c5c(F)cccc5[nH]c4=O)[nH]c3c2)CC1 [Dovitinib] (1000 nM) | 101 | 95.8 | 105 | 131 | 103 | 94 | 128 | 104 | 102 | 167 | 97.8 | 106 | 106 | 104 | 98.6 | 80.1 | 88.5 | 97.7
